This note sets out measurements from patent US20150175655A1 (priority 2012, published 2015).

Each structure is given as a SMILES string.

Common to all, as to assay type: cell-based
Assay [1] relates to genotype 1a (H77) wild-type transient HCV replicon in Huh-7-derived cells. The experiment in a line: Transient-transfected HCV replicon EC50, genotype 1a wild type. The conditions noted are these: Hepatitis C virus; transient-transfected replicon genotype 1a wild type, 72 h; read-out: EC50 1A WT. (In antiviral work, replicon cells carry a viral genome segment that copies itself.)

Assay [2] deals with genotype 1a stable HCV replicon (H77 strain) in Huh-7-derived cells. Kind of assay: Stable subgenomic HCV replicon EC50, genotype 1a (Renilla luciferase). The note with it: Hepatitis C virus, stable replicon genotype 1a, 72 h, read-out: EC50 1A RLUC. As for the experimental part:
(§1) Antiviral potency (EC50) was determined in both stable subgenomic HCV replicon cell lines and transient-transfected HCV replicon cells. The term half maximal effective concentration (EC50) refers to the concentration of a drug which induces a response halfway between the baseline and maximum after the exposure time specified below.
(§2) Stable subgenomic HCV replicons for genotype 1a, 1 b, 2a, 3a, and 4a were established in Huh-7-derived cells as described by Lohmann et al (Lohmann V, Korner F, Koch J, et al Replication of subgenomic hepatitis C virus RNAs in a hepatoma cell line. Science 1999; 285:119-3). Each stable cell line contains a bicistronic HCV replicon that encodes a humanized Renilla luciferase (hRLuc) reporter gene fused to a selectable neomycin-resistance gene, followed by an EMCV IRES and the NS3-NS5B coding region of HCV. […] Luciferase activity was measured as a marker for intracellular HCV replication levels.
(§3) The genotype 1a stable replicon was derived from the H77 HCV strain and contained adaptive mutations P1496L and S2204I. The genotype 1 b stable replicon was derived from the Cont HCV strain and contained adaptive mutations E1202G, T1280I, and K1846T. […] The genotype 3a stable replicon was derived from the S52 HCV strain and contained adaptive mutations P1121 L, A1198T and S2210I (equivalent to S2204I in genotype 1). The genotype 4a stable replicon was derived from the ED43 HCV strain and contained adaptive mutations Q1691R and S2204I. All replicon cell lines were propagated in Huh-7-derived cells and maintained in Dulbecco's modified Eagle's Medium (DMEM) supplemented with 10% fetal bovine serum (FBS) and 0.5 mg/mL G418.
(§4) To perform EC50 assays, cells from each HCV replicon were dispensed into 384-well plates. Compounds were dissolved in DMSO at a concentration of 10 mM and diluted in DMSO using an automated pipetting instrument. Three-fold serially diluted compounds were directly added to the cells using an automated instrument. […] Seventy-two hours later, cells were lysed and Renilla luciferase activity were quantified as recommended by the manufacturer (Promega-Madison, Wis.). Non-linear regression was performed to calculate EC50 values.

The test system of assay [3] is genotype 1a transient HCV replicon, NS3/4a protease inhibitor resistant variant R155K, in Huh-7-derived cells. Kind of assay: Transient-transfected HCV replicon EC50, genotype 1a R155K. The conditions noted are these: Hepatitis C virus, 72 h, read-out: EC50 1A R155K.
Assay [4] concerns genotype 3a stable HCV replicon (S52 strain) in Huh-7-derived cells. The experiment in a line: Stable subgenomic HCV replicon EC50, genotype 3a (Renilla luciferase). The conditions noted are these: Hepatitis C virus, 72 h, read-out: EC50 3A RLUC. On the procedure: as §1, §2, §3, §4

`CC[C@@H]1[C@@H]2CN(C(=O)[C@H](C(C)(C)C)NC(=O)O[C@]3(C)CCC[C@H]3CCCCCc3nc4ccc(OC)cc4nc3O2)[C@@H]1C(=O)N[C@]1(C(=O)NS(=O)(=O)C2(C)CC2)C[C@H]1CC(F)F` [Example 41, (3aR,7S,10S,11S,12R,24aR)-7-tert-butyl-N-[(1R,2S)-2-(2,2-difluoroethyl)-1-{[(1-methylcyclopropyl)sulfonyl]carbamoyl}cyclopropyl]-11-ethyl-16-methoxy-3a-methyl-5,8-dioxo-1,2,3,3a,5,6,7,8,11,12,20,21,22,23,24,24a-hexadecahydro-10H-9,12-methanocyclopenta[18,19][1,10,3,6]dioxadiazacyclononadecino[11,12-b]quinoxaline-10-carboxamide]: the EC50 (commonly the concentration at which the effect is half-maximal) in assay [1] was found to be 164 nM; in assay [2] it was 135 nM.
As to `COc1ccc2nc3c(nc2c1)O[C@H]1CN(C(=O)[C@H](C(C)(C)C)NC(=O)O[C@@H]2C[C@H]2CCCCC3F)[C@H](C(=O)N[C@]2(C(=O)NS(=O)(=O)C3(C)CC3)C[C@H]2C(F)F)[C@@H]1C` (stereo partly drawn) [Example 47, (1aR,5S,8S,9S,10R,22aR)-5-tert-butyl-N-[(1R,2R)-2-(difluoromethyl)-1-{[(1-methylcyclopropyl)sulfonyl]carbamoyl}cyclopropyl]-18-fluoro-14-methoxy-9-methyl-3,6-dioxo-1,1a,3,4,5,6,9,10,18,19,20,21,22,22a-tetradecahydro-8H-7,10-methanocyclopropa[18,19][1,10,3,6]dioxadiazacyclononadecino[11,12-b]quinoxaline-8-carboxamide], the EC50 in assay [3] was 6.1 nM; in assay [1] it was 5.4 nM; in assay [2], 3.8 nM; in assay [4], 58 nM.
Regarding `CC[C@@H]1[C@@H]2CN(C(=O)[C@H](C(C)(C)C)NC(=O)O[C@@H]3C[C@H]3CC/C=C/C(F)(F)C3Nc4ccc(C#N)cc4N=C3O2)[C@@H]1C(=O)N[C@]1(C(=O)NS(=O)(=O)C2(C)CC2)C[C@H]1C(F)F` (stereo partly drawn) [Example 78, (1aR,5S,8S,9S,10R,19E,22aR)-5-tert-butyl-14-cyano-N-[(1R,2R)-2-(difluoromethyl)-1-{[(1-methylcyclopropyl)sulfonyl]carbamoyl}cyclopropyl]-9-ethyl-18,18-difluoro-3,6-dioxo-1,1a,3,4,5,6,9,10,17,17a,18,21,22,22a-tetradecahydro-8H-7,10-methanocyclopropa[18,19][1,10,3,6]dioxadiazacyclononadecino[11,12-b]quinoxaline-8-carboxamide], the EC50 in assay [3] was found to be 225 nM; in assay [1] it was 189 nM; in assay [2] it was 267 nM; in assay [4], 1120 nM.
For `C[C@@H]1[C@@H]2CN(C(=O)[C@H](C(C)(C)C)NC(=O)O[C@@H]3C[C@H]3CCCCC(F)(F)c3nc4ccc(Cl)cc4nc3O2)[C@@H]1C(=O)N[C@]1(C(=O)NS(=O)(=O)C2(C)CC2)C[C@H]1C(F)F` [Example 88, (1aR,5S,8S,9S,10R,22aR)-5-tert-butyl-14-chloro-N-[(1R,2R)-2-(difluoromethyl)-1-{[(1-methylcyclopropyl)sulfonyl]carbamoyl}cyclopropyl]-18,18-difluoro-9-methyl-3,6-dioxo-1,1a,3,4,5,6,9,10,18,19,20,21,22,22a-tetradecahydro-8H-7,10-methanocyclopropa[18,19][1,10,3,6]dioxadiazacyclononadecino[11,12-b]quinoxaline-8-carboxamide] the same measures were 14 nM, 5 nM, 9.3 nM and 105 nM.
